Measurements from PubChem BioAssay AID1671416.

Target: Proto-oncogene tyrosine-protein kinase Src (Homo sapiens) (UniProt P12931)
Experiment: PubChem AID 1671416
Details: Z'-LYTE FRET kinase activity, recombinant SRC

Chain of Proto-oncogene tyrosine-protein kinase Src (Homo sapiens) (P12931 whole entry, looked up): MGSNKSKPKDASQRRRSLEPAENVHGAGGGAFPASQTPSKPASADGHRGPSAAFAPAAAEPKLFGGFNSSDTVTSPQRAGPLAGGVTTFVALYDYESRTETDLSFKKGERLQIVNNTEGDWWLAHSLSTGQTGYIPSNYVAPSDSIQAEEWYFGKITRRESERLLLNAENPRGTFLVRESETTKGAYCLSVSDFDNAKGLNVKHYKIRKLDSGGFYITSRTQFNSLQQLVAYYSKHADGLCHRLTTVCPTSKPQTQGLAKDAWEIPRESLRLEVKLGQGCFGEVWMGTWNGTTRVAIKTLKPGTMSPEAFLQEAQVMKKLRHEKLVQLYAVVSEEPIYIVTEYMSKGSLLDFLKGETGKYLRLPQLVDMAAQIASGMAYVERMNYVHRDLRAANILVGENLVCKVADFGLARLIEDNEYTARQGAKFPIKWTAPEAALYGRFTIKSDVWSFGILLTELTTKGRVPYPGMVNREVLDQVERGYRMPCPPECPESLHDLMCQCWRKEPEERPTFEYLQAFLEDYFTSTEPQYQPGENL

IC50: 2.45 µM
SMILES: COc1cc2ncnc(Nc3cccc(Cl)c3)c2cc1OC
